Experimental data published in patent publication US20250375526A1, “IRAK DEGRADERS AND USES THEREOF” (Kymera Therapeutics, Inc., priority 2020, published 2025).

Target: T1, IRAK4 (Homo sapiens, UniProt Q9NWZ3)
T1 construct: endogenous in cells; host or cells: OCI-Ly10
T1 sequence (Q9NWZ3 1-460): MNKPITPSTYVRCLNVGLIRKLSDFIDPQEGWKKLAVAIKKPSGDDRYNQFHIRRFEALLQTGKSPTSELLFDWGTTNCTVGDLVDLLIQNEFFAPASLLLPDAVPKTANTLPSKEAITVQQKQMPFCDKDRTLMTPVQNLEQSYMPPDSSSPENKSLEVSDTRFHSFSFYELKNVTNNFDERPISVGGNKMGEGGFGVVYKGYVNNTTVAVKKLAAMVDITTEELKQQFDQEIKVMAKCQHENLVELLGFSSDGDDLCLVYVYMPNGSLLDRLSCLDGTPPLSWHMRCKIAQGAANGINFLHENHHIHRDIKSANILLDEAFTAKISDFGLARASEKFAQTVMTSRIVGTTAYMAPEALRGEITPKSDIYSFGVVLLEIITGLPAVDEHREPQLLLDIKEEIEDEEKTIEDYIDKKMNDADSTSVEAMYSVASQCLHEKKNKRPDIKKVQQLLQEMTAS
Assay: OCI-LY10 IRAK MSD assay DC50 (IRAK4 degradation)
Format: cell-based
Conditions: OCI-Ly10 cells, incubated for 4 hr, concentration of compound required to degrade 50% of protein
Procedure: A MSD assay is run to determine the concentration of compound required to degrade 50% of protein (DC50).
• Compounds were reconstituted to 10 mM in stock solutions. The stock solutions were diluted to 5 mM and 45 μL of each dilution was transferred to a 384 pp-plate. A 3 fold, 8-point serial dilution was performed by transferring 15 μL of compound into 30 μL DMSO using Janus. • 20 nL of each compound were added into each well of a 96-well plate (Corning3799). • OCI-Ly10 cells were seeded into the 96-well plate at 3.0*10e^5 cells/100 μL/well. • The cell plate was shaken at 720 rpm for 5 min and incubated for 4 hr. • 100 μL of cells were transferred into the 96-PCR plate and spun down at high speed for 5 mins. • The supernatant was discarded and 100 μL of RIPA lysis buffer with proteinase inhibitors was added per well. The plate was then sealed and shaken at 600 rpm and 4° C. for about 20 min. • The plate was then spun down at high speed (about 3200 g) for 30 min and then frozen in a −80° C. fridge. • A bare MSD plate (L15XA-3) was coated with 2 μg/mL of capture antibody (mouse Anti-IRAK4 antibody [2H9], ab119942) in PBS to 40 μL/well and incubated overnight at 4° C.
• The MSD coated plate was washed 3× (150 μL/well) with 1×TBST (CST #9997S). • The MSD plate was then blocked with 150 μL of blocking buffer [3% Blocker A (MSD, R93BA-4) in TBST]/well and shaken for 1 hr at RT and 600 rpm. • The MSD plate was washed 3× (150 μL/well) with 1×TBST. The sample RIPA lysates were then added to the MSD plate (50 μL/well) and shaken for 1 hr at RT and 600 rpm. • The MSD plate was washed 3× (150 μL/well) with 1×TBST and the primary detection antibody (Rabbit Anti-IRAK4 antibody [Y279], ab32511) was added to a final concentration of 1 μg/ml with 25 μL/well. The plate was then shaken for 1 hr at RT and 600 rpm. • The MSD plate was washed 3× (150 μL/well) with 1×TBST and the secondary detection antibody, SULFO-TAG anti-species antibody (Anti Rabbit Antibody (R32AB-5) MSD, R32AB-1) was added to a volume of 25 μL/well at a final concentration of 1 μg/ml. The plate was then shaken for 1 hr at RT and 600 rpm. • The MSD plate was then washed 3× (150 μL/well) with 1×TBST. • 1×MSD reading buffer was then added (150 μL/well) and the plate […].
(MSD, R92TC-2) • The MSD instrument was then read.
The remaining activity was calculated following the formula below:
• The DC50 was calculated by fitting the Curve using Xlfit (v5.3.1.3), equation 201: […]
The letter codes for IRAK4 DC50 indicate the concentration of compound required to degrade 50% of protein: A (<0.01 μM), B (0.01-0.1 μM), C (>0.1-0.2 μM), D (>0.2 μM).

| Structure (SMILES) | DC50 [µM] |
| --- | --- |
| O=C1CCN(c2cnc3cc(C#CCN4CCN(C[C@H]5CC[C@H](n6cc(NC(=O)c7cnn8ccc(N9C[C@H]%10C[C@@H]9CO%10)nc78)c(C(F)F)n6)CC5)CC4)ccn23)C(=O)N1 [I-75] | < 0.01 |
| COc1cc2nn([C@H]3CC[C@H](CN4CCC(c5ccn6c(N7CCC(=O)NC7=O)cnc6c5)CC4)CC3)cc2cc1NC(=O)c1cncc(C#N)c1 [I-84] | > 0.2 |
| O=C1CCN(c2cnc3cc(C#CCO[C@@H]4CCN(C[C@H]5C[C@H](n6cc(NC(=O)c7cnn8ccc(N9C[C@H]%10C[C@@H]9CO%10)nc78)c(C(F)F)n6)C5)C[C@@H]4F)ccn23)C(=O)N1 [I-42] | < 0.01 |
| COc1cc2nc([C@H]3CC[C@H](CN(C)C4CCN(c5ccn6c(N7CCC(=O)NC7=O)cnc6c5)CC4)CC3)sc2cc1NC(=O)c1cccc(C(F)(F)F)n1 [I-80] | 0.01 to 0.1 |
| CC(C)Nc1cc(-c2ccc3cc(C#N)cnn23)ncc1C(=O)N[C@H]1CC[C@H](CN2CCC(c3ccn4c(N5CCC(=O)NC5=O)cnc4c3)CC2)CC1 [I-74] | 0.01 to 0.1 |
| COc1cc2nn([C@H]3CC[C@H](CN(C)C4CCN(c5ccn6c(N7CCC(=O)NC7=O)cnc6c5)CC4)CC3)cc2cc1NC(=O)c1cncc(Cl)c1 [I-87] | 0.01 to 0.1 |
| COc1cc2nn([C@H]3CC[C@H](CN(C)C4CCN(c5ccn6c(N7CCC(=O)NC7=O)cnc6c5)CC4)CC3)cc2cc1NC(=O)c1cc(F)cc(C(F)(F)F)c1 [I-86] | 0.01 to 0.1 |
| CC(C)Nc1cc(-n2ccc3cc(C#N)cnc32)ncc1C(=O)N[C@H]1CC[C@H](CN2CCC(c3cccn4c(N5CCC(=O)NC5=O)cnc34)CC2)CC1 [I-76] | 0.01 to 0.1 |
| C[C@@H]1CN(C[C@H]2CC[C@H](n3cc(NC(=O)c4cnn5ccc(N6C[C@H]7C[C@@H]6CO7)nc45)c(C(F)F)n3)CC2)CC[C@H]1OCC#Cc1ccn2c(N3CCC(=O)NC3=O)cnc2c1 [I-64] | < 0.01 |

Other lines, results leading:

| DC50 [µM] | Structure (SMILES) |
| --- | --- |
| 0.01 to 0.1 | COc1cc2nn([C@H]3CC[C@H](CN4CCC(c5cccn6c(N7CCC(=O)NC7=O)cnc56)CC4)CC3)cc2cc1NC(=O)c1cc(F)cc(C(F)(F)F)c1 [I-82] |
| 0.01 to 0.1 | Cc1cc2nn([C@H]3CC[C@H](CN4CCN(c5cccn6c(N7CCC(=O)NC7=O)cnc56)CC4)CC3)cc2cc1NC(=O)c1cccc(C(F)(F)F)n1 [I-49] |
| 0.01 to 0.1 | O=C1CCN(c2cncc3c(C4CCN(C[C@H]5CC[C@H](n6cc7cc(NC(=O)c8cccc(C(F)(F)F)n8)ccc7n6)CC5)CC4)cccc23)C(=O)N1 [I-10] |
| > 0.2 | O=C1CCN(c2cnc3c(C4CCN(C[C@H]5C[C@H](n6cc7cc(NC(=O)c8cccc(C(F)(F)F)n8)ccc7n6)C5)CC4)cccn23)C(=O)N1 [I-39, N-[2-[3-[[4-[3-(2,4-dioxohexahydropyrimidin-1-yl)imidazo[1,2-a]pyridin-8-yl]-1-piperidyl]methyl]cyclobutyl]indazol-5-yl]-6-(trifluoromethyl)pyridine-2-carboxamide] |
| 0.1 to 0.2 | COc1cc2nn([C@H]3CC[C@H](CN4CCC(c5cccn6c(N7CCC(=O)NC7=O)cnc56)CC4)CC3)cc2cc1NC(=O)c1cncc(C#N)c1 [I-83] |
| < 0.01 | O=C1CCN(c2cncc3cc(C4CCN(C[C@H]5CC[C@H](n6cc7cc(NC(=O)c8cccc(C(F)(F)F)n8)ncc7n6)CC5)CC4)ccc23)C(=O)N1 [I-18] |
| 0.01 to 0.1 | O=C1CCN(c2cnc3cc(C4CCN(C[C@H]5C[C@H](n6cc7cc(NC(=O)c8cccc(C(F)(F)F)n8)ccc7n6)C5)CC4)ccn23)C(=O)N1 [I-38] |
| 0.01 to 0.1 | COc1cc2nn([C@H]3CC[C@H](CN4C[C@H]5C[C@@H]4CN5c4cccn5c(N6CCC(=O)NC6=O)cnc45)CC3)cc2cc1NC(=O)c1cccc(C(F)(F)F)n1 [I-55] |
| 0.01 to 0.1 | O=C1CCN(c2cnc3c(C4CCN(C[C@H]5CC[C@H](n6cc7cc(NC(=O)c8cccc(C(F)(F)F)n8)ncc7n6)CC5)CC4)cccn23)C(=O)N1 [I-29] |
| < 0.01 | COc1cc2nn([C@H]3CC[C@H](CN4CCN(c5ccn6c(N7CCC(=O)NC7=O)cnc6c5)CC4)CC3)cc2cc1NC(=O)c1cccc(C(F)(F)F)n1 [I-68] |
| 0.01 to 0.1 | COc1cc2nn([C@H]3CC[C@H](CN4C5CC4CN(c4cccn6c(N7CCC(=O)NC7=O)cnc46)C5)CC3)cc2cc1NC(=O)c1cccc(C(F)(F)F)n1 [I-57] |
